Measurements taken from paper PMC3905170, “Synthesis and structure evaluation of new complex butylarylpiperazin-1-yl derivatives” (Medicinal Chemistry Research, 2013).
Read-outs that look alike come from different tables or passages of the source.

Tests used:
HIV-1IIIB = assay: Anti-HIV-1 assay: inhibition of virus-induced cytopathogenicity in MT-4 cells (MTT method); assay type: cell-based, human immunodeficiency virus type-1; settings: MT-4 cells infected with HIV-1IIIB, m.o.i. 0.01, 4-day incubation, read-out: EC50: compound concentration required to achieve 50 % protection of MT-4 cells from the HIV-1-induced cytopathogenicity
From the text: Cell line and viruses were purchased from the American Type Culture Collection (ATCC). The absence of mycoplasma contamination was checked periodically by the Hoechst staining method. Cell line supporting the multiplication of human immunodeficiency virus type-1 (HIV-1) was the CD4+ human T-cells containing an integrated HTLV-1 genome (MT-4).
Compound’s activity against HIV-1 was based on inhibition of virus-induced cytopathogenicity in MT-4 cell acutely infected with a multiplicity of infection (m.o.i.) of 0.01. In brief, 50 μl of RPMI containing 1 × 10^4 MT-4 cells were added to each well of flat-bottom microtitre trays, containing 50 μl of RPMI with or without serial dilutions of test compounds. Then, 20 μl of a HIV-1 suspension containing 100 CCID50 was added. After a 4-day incubation at 37 °C, cell viability was determined by the MTT method (Pauwels et al., [1988]).

MT-4 cells = assay: Cytotoxicity assay in MT-4 cells (MTT method); assay type: cell-based, human
Procedure: (§1) Cell line and viruses were purchased from the American Type Culture Collection (ATCC). The absence of mycoplasma contamination was checked periodically by the Hoechst staining method. Cell line supporting the multiplication of human immunodeficiency virus type-1 (HIV-1) was the CD4+ human T-cells containing an integrated HTLV-1 genome (MT-4). Cytotoxicity assays were run in parallel with antiviral assays. Exponentially growing MT-4 cells were seeded at an initial density of 1 × 10^5 cells/ml in 96-well plates in RPMI-1640 medium, supplemented with 10 % fetal bovine serum (FBS), 100 units/ml penicillin G, and 100 μg/ml streptomycin. Cell cultures were then incubated at 37 °C in a humidified 5 % CO2 atmosphere in the absence or presence of serial dilutions of test compounds. Cell viability was determined after 96 h at 37 °C by the 3-(4,5-dimethylthiazol-2-yl)-2,5-diphenyl-tetrazolium bromide (MTT) method (Pauwels et al., [1988]).

[1] = Cytotoxicity assay in MT-4 cells (MTT method); assay type: cell-based, human; settings: human; mock-infected MT-4 cells, 96 h, MTT method; read-out: CC50: compound concentration required to reduce the viability of mock-infected MT-4 cells by 50 %
Procedure: as §1

5-HT1A receptor = target: T1, 5-HT1A receptor (Rattus norvegicus, UniProt P19327); assay: In vitro ligand binding assay with native 5-HT1A receptor
T1 construct: Ligand studies with native 5-HT1A receptor; from tissue
T1 sequence (P19327 1-422): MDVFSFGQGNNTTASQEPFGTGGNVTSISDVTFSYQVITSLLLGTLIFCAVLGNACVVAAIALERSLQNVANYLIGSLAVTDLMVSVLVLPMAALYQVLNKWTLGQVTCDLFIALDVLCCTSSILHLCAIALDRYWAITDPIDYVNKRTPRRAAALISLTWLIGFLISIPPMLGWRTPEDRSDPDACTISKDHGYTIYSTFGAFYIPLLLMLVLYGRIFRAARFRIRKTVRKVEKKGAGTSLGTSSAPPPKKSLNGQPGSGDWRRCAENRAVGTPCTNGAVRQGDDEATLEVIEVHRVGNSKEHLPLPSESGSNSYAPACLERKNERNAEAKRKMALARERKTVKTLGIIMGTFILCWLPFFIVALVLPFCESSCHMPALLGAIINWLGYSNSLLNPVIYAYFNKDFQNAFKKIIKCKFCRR
Procedure: Ligand studies with native 5-HT1A receptor were conducted according to the methods previously described (Lewgowd et al., [2011]).

[2] = Human immunodeficiency virus 1, MT4, 96 h

Compound | melting point [°C] | EC50 (HIV-1IIIB) [µM] | CC50 (MT-4 cells) [µM] | EC50 (HIV-1IIIB; [2]) [µM] | CC50 at 96 h [1] [µM] | activity to the 5-HT1A receptor (5-HT1A receptor)
O=c1cccc2cc3c(-c4ccccc4)c4c(=O)n(CCCCBr)c(=O)c4c(-c4ccccc4)c3c1-2 | 241 to 242 | – | – | – | – | –
2-{4-[4-(2-Fluorophenyl)piperazin-1-yl]butyl}-4,10-diphenyl-1H,2H,3H,5H-indeno[1,2-f]isoindole-1,3,5-trione [Compound 15] | – | > 100 | > 100 | – | – | –
2-{4-[4-(4-Fluorophenyl)piperazin-1-yl]butyl}-4,10-diphenyl-1H,2H,3H,5H-indeno[1,2-f]isoindole-1,3,5-trione [Compound 16] | – | > 100 | > 100 | – | – | –
4,10-Diphenyl-2-[4-(4-phenylpiperazin-1-yl)butyl]-1H,2H,3H,5H-indeno[1,2-f]isoindole-1,3,5-trione [Compound 12] | – | > 100 | > 100 | – | – | –
4,10-Diphenyl-2-[4-(4-{2-[2-(trifluoromethyl)phenyl]ethyl}piperazin-1-yl)butyl]-1H,2H,3H,5H-indeno[1,2-f]isoindole-1,3,5-trione [Compound 14] | – | > 9 | 9 | – | – | –
4,10-Diphenyl-2-{4-[4-(pyridin-2-yl)piperazin-1-yl]butyl}-1H,2H,3H,5H-indeno[1,2-f]isoindole-1,3,5-trione [Compound 13] | – | > 100 | > 100 | – | – | –
O=C1C2C(C(=O)N1CCCCN1CCN(c3ccccn3)CC1)C1(c3ccccc3)C(=O)C2(c2ccccc2)c2c1c1ccccc1c1ccccc21 (stereo not drawn) [Compound 3, 1,16-Diphenyl-19-(4-(4-pyridin-2-ylpiperazin-1-yl)butyl)-19-azahexacyclo-[14.5.1.0^2,15.0^3,8.0^9,14.0^17,21]docosa-2,3,5,7,8,9,11,13,14-nonaene-18,20,22-trione] | 200 to 203 | – | – | > 90 | 90 | –
COc1ccccc1N1CCN(CCCCN2C(=O)C3C(C2=O)C2(c4ccccc4)C(=O)C3(c3ccccc3)c3c2c2ccccc2c2ccccc32)CC1 (stereo not drawn) [Compound 4, 19-(4-(4-(2-(Methyloxy)phenyl)piperazin-1-yl)butyl)-1,16-diphenyl-19-azahexa-cyclo[14.5.1.0^2,15.0^3,8.0^9,14.0^17,21]docosa-2,3,5,7,8,9,11,13,14-nonaene-18,20,22-trione] | 197 to 200 | – | – | – | – | moderate activity
O=C1C2C(C(=O)N1CCCCN1CCN(c3ccc(Cl)cc3)CC1)C1(c3ccccc3)C(=O)C2(c2ccccc2)c2c1c1ccccc1c1ccccc21 (stereo not drawn) [Compound 6, 19-(4-(4-(4-Chlorophenyl)piperazin-1-yl)butyl)-1,16-diphenyl-19-azahexacyclo-[14.5.1.0^2,15.0^3,8.0^9,14.0^17,21]docosa-2,3,5,7,8,9,11,13,14-nonaene-18,20,22-trione] | 220 to 221 | – | – | > 100 | > 100 | –
O=C1C2C(C(=O)N1CCCCN1CCN(c3ccccc3F)CC1)C1(c3ccccc3)C(=O)C2(c2ccccc2)c2c1c1ccccc1c1ccccc21 (stereo not drawn) [Compound 7, 19-(4-(4-(2-Fluorophenyl)piperazin-1-yl)butyl)-1,16-diphenyl-19-azahexacyclo-[14.5.1.0^2,15.0^3,8.0^9,14.0^17,21]docosa-2,3,5,7,8,9,11,13,14-nonaene-18,20,22-trione] | 205 to 207 | – | – | > 100 | > 100 | –
CC(=O)c1ccc(N2CCN(CCCCN3C(=O)C4C(C3=O)C3(c5ccccc5)C(=O)C4(c4ccccc4)c4c3c3ccccc3c3ccccc43)CC2)cc1 (stereo not drawn) [Compound 8, 19-(4-(4-(4-Acetylphenyl)piperazin-1-yl)butyl)-1,16-diphenyl-19-azahexacyclo-[14.5.1.0^2,15.0^3,8.0^9,14.0^17,21]docosa-2,3,5,7,8,9,11,13,14-nonaene-18,20,22-trione] | 202 to 204 | – | – | > 100 | > 100 | –
O=c1[nH]c(=O)c2c(-c3ccccc3)c3c(c(-c4ccccc4)c12)c(=O)c1ccccc13 [Compound 10, 4,10-diphenyl-1H,2H,3H,5H-indeno[1,2-f]isoindole-1,3,5-trione] | – | > 9 | 9 | – | – | –
O=c1c2ccccc2c2c(-c3ccccc3)c3c(=O)n(CCCCN4CCN(c5ccc(Cl)cc5)CC4)c(=O)c3c(-c3ccccc3)c12 [Compound 17, 2-{4-[4-(4-Chlorophenyl)piperazin-1-yl]butyl}-4,10-diphenyl-1H,2H,3H,5H-indeno[1,2-f]isoindole-1,3,5-trione] | – | > 100 | > 100 | – | – | –
O=c1c2ccccc2c2c(-c3ccccc3)c3c(=O)n(CCCCN4CCN(c5ccccc5Cl)CC4)c(=O)c3c(-c3ccccc3)c12 [Compound 18, 2-{4-[4-(2-Chlorophenyl)piperazin-1-yl]butyl}-4,10-diphenyl-1H,2H,3H,5H-indeno[1,2-f]isoindole-1,3,5-trione] | – | > 100 | > 100 | – | – | –
COc1ccccc1N1CCN(CCCCn2c(=O)c3c(-c4ccccc4)c4c(=O)c5ccccc5c4c(-c4ccccc4)c3c2=O)CC1 [Compound 19, 2-{4-[4-(2-metoxyphenyl)piperazin-1-yl]butyl}-4,10-diphenyl-1H,2H,3H,5H-indeno[1,2-f]isoindole-1,3,5-trione] | 245 to 246 | – | – | > 100 | > 100 | –
O=C1Nc2ccc(Cl)cc2[C@@](C#CC2CC2)(C(F)(F)F)O1 [Efavirenz, reference compound] | – | – | – | 0.002 | 45 | –
